Assay results as given in paper PMC11836371, “Virtual fragment screening for DNA repair inhibitors in vast chemical space” (Nature Communications, 2025).
Several values for one entry are separate records, joined by “and”; a condition that tells them apart may be missing. Equal entries are not always repeated. Where two headings read alike, the source gives them in different places.

Experiments:
OGG1-GFP in U2OS cells = molecular target: T1, OGG1-GFP in U2OS cells (Homo sapiens, UniProt O15527); assay: Laser microirradiation assay (OGG1-GFP recruitment to DNA damage sites); format: cell-based; conditions: for OGG1-GFP recruitment to DNA damage sites, intensity normalised to time 0 (Figure3E): single-cell replicate traces
T1 construct: expressed in transfected cells

OGG1 in HL60 cells = molecular target: T2, OGG1 in HL60 cells (Homo sapiens, UniProt O15527); assay: Cellular thermal shift assay (CETSA); format: cell-based
T2 construct: endogenous in cells; host or cells: HL60
Protocol: CETSA experiments were carried out with intact HL60 cells treated in culture. Cells were seeded at a density of 350 000 cells/mL and treated with DMSO (0.01%, v/v) or 20 µM test compound for 2 h at 37 °C and 5% CO2 in a humidified incubator. Cells were washed once in 1x TBS (50 mM Tris-HCl, pH 7.6, 150 mM NaCl), resuspended in 1x TBS supplemented with protease inhibitors (Roche), and then divided into 30-µL aliquots corresponding to approximately 600,000 cells per sample in PCR strip tubes. Cells were heated in a Veriti Thermal Cycler (Applied Biosystems) for 3 min at indicated temperatures (temperature interval consisting of 2 °C increases, starting from 40 °C up to 62 °C) and cooled for 5 min at room temperature to allow precipitation of denatured proteins. 5x NP-40 buffer was added to the samples and cells were lysed by performing three freeze–thaw cycles at −80 °C for 3 min and at 37 °C for 3 min with gentle vortexing between the cycles. Cell lysates were then centrifuged at 17,000 g and 4 °C for 30 min to remove cellular debris and insoluble proteins. Supernatant was prepared for western blot analysis according to standard procedures. […]

[1] = Metabolic stability in human liver microsomes; format: in vitro ADME; conditions: pH 7.4, intrinsic clearance
Protocol: Human liver microsomes were purchased from BioIVT. Metabolic stability was determined in 0.5 mg/mL human liver microsomes at a compound concentration of 1 µM in 100 mM KPO4 buffer pH 7.4 in a total incubation volume of 500 µL. The reaction was initiated by the addition of 1 mM NADPH. At various incubation times, i.e., at 0, 5, 10, 20, 40, and 60 min, a sample was withdrawn from the incubation and the reaction was terminated by the addition of cold acetonitrile with warfarin as an internal standard. The amount of parent compound remaining was analyzed by liquid chromatography coupled to triple quadrupole mass spectrometry (LC-MS/MS).

[2] = tested on: NF-κB activation in HEK293T pGF NF-κB cells; assay: TNF-α induced NF-κB activation assay; format: cell-based; conditions: for EC50: Homo sapiens, HEK-293T
Protocol: The inhibition of TNF-α induced NF-κB activation was measured in HEK293T cells transfected with the pGreenfire NF-κB plasmid. This is a plasmid that has NF-κB response elements (TRE) coupled to GFP and luciferase expression. When the NF-κB is activated by TNF-α, it binds to the TRE and induces GFP expression, and the fluorescence can be measured in a plate reader. The cells were authenticated with STR profiling, frozen down and these stocks were used in experiments. The HEK293T pGF NF-κB cells were kept in DMEM with 5% FBS and 1% P/S but, when seeded for the assay the medium was changed to DMEM FluoroBrite with 1% dialyzed FBS. All cell culture reagents were purchased from Thermo Fisher Scientific. Compounds were nano-dispensed (Echo acoustic dispenser) in 96-well, black/clear, assay plates (Corning #3904), duplicate plates, in 8-points dose-response curves, 1:2 dilutions, with DMSO compensation (0.3% DMSO). Cells were seeded at 30000 cells/well in medium containing 10 ng/mL of TNF-α (Sigma-Aldrich), except negative control wells which only contained cells in medium. Cells were cultured for 24 hours in a humidified incubator at 37 °C with 5% CO2 after which the GFP fluorescence was measured in a Sense plate reader (Hidex) with ex485/em535. The RFU data from the duplicate plates were combined to calculate % inhibition of NF-κB activation and IC50-values were calculated using XLfit (IDBS). In parallel with the NF-κB assay, a CellTiterGlo (Promega) cell viability assay was run to exclude compounds affecting cell viability. Compounds were nano-dispensed (Echo acoustic dispenser) in assay plates in 11-points dose-response curves, 1:3 dilutions, without DMSO compensation, with duplicates on the same plate. Cells were seeded at 7500 cells/well in 25 µL medium (DMEM FluoroBrite with 1% dialyzed FBS) containing 10 ng/mL TNF-α and cultured for 24 hours, with column 24 containing only culture medium. After equilibration to room temperature, the CellTiterGlo reagents were mixed and 25 µL/well were added to the cell plate. After 2 min mixing of the plate on an orbital shaker, the plate was incubated for 10 min at room temperature followed by luminescence reading in Sense. The cell viability was calculated compared to untreated control wells and the EC50 values were determined in XLfit (IDBS). […]

[3] = Plasma protein binding in human plasma (RED); format: in vitro ADME; conditions: plasma (50% plasma, 50% isotonic buffer), pH 7.4, read-out: Protein plasma binding, fu (%)
Protocol: Pooled human plasma was provided by Uppsala Academic Hospital and was collected from two donors (non-smoking) (citric acid). In brief, 0.2 mL of the plasma (50% plasma, 50% isotonic buffer) test solution (typically 10 µM final compound concentration) was transferred to the membrane tube in the RED insert (ThermoFisher Scientific). 0.35 ml isotonic phosphate buffer pH 7.4 was added to the other side of the membrane. The 96-well base plate was then sealed with an adhesive plastic film (Scotch Pad) to prevent evaporation. The sample was incubated with rapid rotation (>>900 rpm) on a Kisker rotational incubator at 37 °C for 4 h to achieve equilibrium. Prior to LC-MS/MS analysis the plasma and buffer samples were treated with the addition of Methanol (1:3) containing Warfarin as an internal standard to precipitate proteins. The standard curve was created using the plasma standard. The plate was then sealed, and centrifuged and the supernatant was analyzed by liquid chromatography coupled to triple quadrupole mass spectrometry (LC-MS/MS).

NEIL1 = NEIL1 (Homo sapiens, UniProt Q96FI4); assay: biochemical
Protocol: Inhibition of the following enzymes was assessed in the selectivity assays: apurinic/apyrimidinic endonuclease (APE1), endonuclease 8-like 1 (NEIL1), oxidized purine nucleoside triphosphate hydrolase (MTH1) and single-strand selective monofunctional uracil DNA glycosylase (SMUG1). BER enzymes were assayed with a similar strategy as OGG1, using identical DNA sequences surrounding the substrate lesion and the same reaction buffer containing 2 nM APE1. To assess SMUG1 inhibition, a 375 nM substrate containing uracil opposite guanine and 0.3 U SMUG1 enzyme (M0336 from New England Biolabs) was used. To assess NEIL1 inhibition, a 20 nM substrate containing thymidine glycol opposite adenine and 10 nM NEIL1 was used. […] All BER inhibition assays were in the linear range and less than 40% of the total substrate had been consumed at readout. The experiments were performed in three independent replicates and the percentage inhibition was calculated relative to the signal of a DMSO-treated control. […] The produced free phosphate was then detected using the malachite green assay[76]. […] Absorbance was read at 630 nm using a Hidex Sense plate reader after a period of incubation with the methylene green reagent of 15 minutes. The experiment was performed in three independent replicates and percentage inhibition was calculated relative to the signal of a DMSO-treated control.

[4] = Concentration 2.34e-7, single replicates
[5] = Concentration 4.69e-7, single replicates
[6] = Concentration 9.38e-7, single replicates
[7] = Concentration 1.88e-6, single replicates
[8] = Concentration 3.75e-6, single replicates
[9] = Concentration 7.5e-6, single replicates
[10] = Concentration 1.5e-5, single replicates
[11] = Concentration 3e-5, single replicates
[12] = NFκB activation assay, ± SD, read-out: pEC50 (converted)

T1 sequence (O15527 whole entry): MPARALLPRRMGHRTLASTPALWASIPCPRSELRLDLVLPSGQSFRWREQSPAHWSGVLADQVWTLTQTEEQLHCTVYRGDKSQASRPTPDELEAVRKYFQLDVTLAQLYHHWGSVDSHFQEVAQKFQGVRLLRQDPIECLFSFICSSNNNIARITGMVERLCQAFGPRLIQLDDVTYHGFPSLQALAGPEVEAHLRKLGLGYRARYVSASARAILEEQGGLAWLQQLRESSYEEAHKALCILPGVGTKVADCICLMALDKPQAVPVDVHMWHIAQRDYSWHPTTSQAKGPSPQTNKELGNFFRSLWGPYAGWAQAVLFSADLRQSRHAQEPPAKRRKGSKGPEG
T2 sequence (O15527 whole entry): as above
NEIL1, sequence (Q96FI4 whole entry, species assumed): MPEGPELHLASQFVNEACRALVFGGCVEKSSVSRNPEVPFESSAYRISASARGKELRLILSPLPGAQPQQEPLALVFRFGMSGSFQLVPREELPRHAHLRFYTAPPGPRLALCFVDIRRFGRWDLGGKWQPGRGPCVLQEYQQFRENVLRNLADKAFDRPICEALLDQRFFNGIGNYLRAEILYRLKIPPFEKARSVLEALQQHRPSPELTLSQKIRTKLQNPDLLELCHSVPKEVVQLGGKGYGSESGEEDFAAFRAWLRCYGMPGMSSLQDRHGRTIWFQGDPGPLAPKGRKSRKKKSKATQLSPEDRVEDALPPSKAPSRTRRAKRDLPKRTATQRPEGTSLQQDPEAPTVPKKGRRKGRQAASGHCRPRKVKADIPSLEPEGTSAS

| SMILES | OGG1-GFP recruitment to DNA damage sites, intensity normalised to time 0 (Figure3E) (OGG1-GFP in U2OS cells; 10uM, time 14 s) | OGG1-GFP recruitment to DNA damage sites, intensity normalised to time 0 (Figure3E) (OGG1-GFP in U2OS cells; 10uM, time 16 s) | OGG1-GFP recruitment to DNA damage sites, intensity normalised to time 0 (Figure3E) (OGG1-GFP in U2OS cells; 10uM, time 18 s) | OGG1-GFP recruitment to DNA damage sites, intensity normalised to time 0 (Figure3E) (OGG1-GFP in U2OS cells; 10uM, time 20 s) | microsomal CLint at 1 µM [1] | % inhibition of NF-κB activation (Figure3F) [2, 4] | % inhibition of NF-κB activation (Figure3F) [2, 5] | % inhibition of NF-κB activation (Figure3F) [2, 6] | % inhibition of NF-κB activation (Figure3F) [2, 7] | % inhibition of NF-κB activation (Figure3F) [2, 8] | % inhibition of NF-κB activation (Figure3F) [2, 9] | % inhibition of NF-κB activation (Figure3F) [2, 10] | % inhibition of NF-κB activation (Figure3F) [2, 11] | EC50 [2, 12] | fraction unbound at 4 h, 10 µM [3] | other results |
| --- | --- | --- | --- | --- | --- | --- | --- | --- | --- | --- | --- | --- | --- | --- | --- | --- |
| Cc1nc(-c2cc(F)c(CC(=O)Nc3noc4c3CCCC4)c(F)c2)c(C)[nH]1 [compound 23] | 1.25 (2×) and 1.24 (4×) and 1.21 and 1.14 and 1.19 (2×) and 1.22 (2×) and 1.23 and 1.26 and 1.2 | 1.27 (3×) and 1.26 (2×) and 1.29 (2×) and 1.23 (4×) and 1.12 and 1.19 and 1.18 and 1.24 | 1.27 (2×) and 1.28 (3×) and 1.24 (3×) and 1.15 and 1.21 and 1.19 and 1.25 (3×) and 1.31 | 1.3 and 1.29 and 1.33 and 1.26 and 1.15 and 1.24 and 1.21 and 1.27 (2×) and 1.28 | 39.7 µL/min/mg | 12.9% and 24.6% and 2.1% | 11.9% and 16.7% and -7.9% | 11% and 6.8% and -9.9% | 11.1% and 26.6% and 2.8% | 21.4% and 46% and -1.3% | 38.5% and 60.8% and 40% | 56.3% and 70.5% and 50.3% | 64.4% and 84.7% and 71.9% | 6.31 µM | 0.048 | Maximum Intensity (OGG1-GFP at damage sites) (OGG1-GFP in U2OS cells; 50uM, single cells, U2OS): 1.31 and 1.3 and 1.27 and 1.34 and 1.37 and 1.28 and 1.23 and 1.32; OGG1-GFP recruitment to DNA damage sites, intensity normalised to time 0 (Figure3E) (OGG1-GFP in U2OS cells; 50uM, time 14 s): 1.18 (2×) and 1.14 and 1.21 (4×) and 1.2 (3×) and 1.12 and 1.19 (2×) and 1.22 and 1.23; OGG1-GFP recruitment to DNA damage sites, intensity normalised to time 0 (Figure3E) (OGG1-GFP in U2OS cells; 50uM, time 16 s): 1.19 and 1.14 and 1.22 (4×) and 1.15 and 1.21 (3×) and 1.2 (2×) and 1.24 and 1.25 and 1.23; OGG1-GFP recruitment to DNA damage sites, intensity normalised to time 0 (Figure3E) (OGG1-GFP in U2OS cells; 50uM, time 18 s): 1.2 (3×) and 1.15 (2×) and 1.22 (3×) and 1.21 (2×) and 1.24 (3×) and 1.23 and 1.27; recruitment of OGG1-GFP to laser-induced DNA damage sites (OGG1-GFP in U2OS cells; U2OS cells): impaired; thermal stabilization of OGG1 in cells (CETSA) (OGG1 in HL60 cells): strong thermal stabilization; EC50 ([2]; inhibition of TNF-α-induced NF-κB activation, read-out: EC50): 6.3 µM |
| Nc1nn(-c2ccc(CC(=O)Nc3noc4c3CCCC4)cc2)c2ccccc12 [compound 11] | – | – | – | – | – | – | – | – | – | – | – | – | – | 10 µM | – | – |
| O=C(Nc1ccc(I)cc1)N1CCC(n2c(=O)[nH]c3c(Br)cccc32)CC1 [TH5487, reference compound] | 1.22 (3×) and 1.25 and 1.18 (2×) and 1.31 and 1.24 and 1.32 (2×) and 1.15 and 1.27 and 1.19 (2×) and 1.28 | 1.24 and 1.28 and 1.23 (2×) and 1.18 (2×) and 1.34 and 1.25 and 1.32 and 1.19 and 1.29 and 1.2 and 1.22 and 1.31 and 1.3 | 1.25 (2×) and 1.31 (2×) and 1.24 and 1.21 and 1.35 (2×) and 1.26 and 1.18 and 1.2 and 1.3 and 1.22 and 1.23 and 1.33 | 1.26 and 1.31 (2×) and 1.24 (3×) and 1.2 and 1.35 and 1.29 and 1.37 and 1.16 and 1.19 and 1.27 and 1.36 and 1.33 | 4.6 µL/min/mg | 18.9% and 16.9% and 37.3% and 20.7% and 19.4% and 19.3% | 18.1% and 35.6% and 25.7% and 21.2% and 9.2% | 12.4% and 13.4% and 36.2% and 34.5% and 36.5% and 30% | 21% and 33.9% and 49.1% and 39.2% and 40.4% and 37.2% | 58.6% and 64.7% and 55% and 52% and 44.1% and 44% | 81.2% and 86.7% and 75.9% and 78.4% and 98.7% and 81.3% | 101.6% and 99.3% (2×) and 95.7% and 105.1% and 123.3% | 104.2% and 102% and 99.9% and 101.1% and 123.3% and 102.7% | – | 0.001 | OGG1-GFP recruitment to DNA damage sites, intensity normalised to time 0 (Figure3E) (OGG1-GFP in U2OS cells; 10uM, time 22 s): 1.27 and 1.32 and 1.28 (3×) and 1.2 and 1.36 and 1.37 (2×) and 1.18 and 1.22 (2×) and 1.34 and 1.25 and 1.35; OGG1-GFP recruitment to DNA damage sites, intensity normalised to time 0 (Figure3E) (OGG1-GFP in U2OS cells; 10uM, time 24 s): 1.29 (2×) and 1.32 and 1.25 (2×) and 1.21 and 1.37 (2×) and 1.39 and 1.18 and 1.22 and 1.35 and 1.3 and 1.24 and 1.36; OGG1-GFP recruitment to DNA damage sites, intensity normalised to time 0 (Figure3E) (OGG1-GFP in U2OS cells; 10uM, time 26 s): 1.29 (2×) and 1.32 and 1.28 and 1.21 and 1.38 (2×) and 1.4 and 1.19 and 1.22 |
| Cc1nc(-c2ccc(CC(=O)Nc3noc4c3CCCC4)cc2)c(C)[nH]1 [compound 17] | – | – | – | – | 23.9 µL/min/mg | – | – | – | – | – | – | – | – | 19.1 µM | 0.014 | IC50 (NEIL1): > 99 µM |
